Each structure is given as a SMILES string.

T1 sequence (P08069 31-1367): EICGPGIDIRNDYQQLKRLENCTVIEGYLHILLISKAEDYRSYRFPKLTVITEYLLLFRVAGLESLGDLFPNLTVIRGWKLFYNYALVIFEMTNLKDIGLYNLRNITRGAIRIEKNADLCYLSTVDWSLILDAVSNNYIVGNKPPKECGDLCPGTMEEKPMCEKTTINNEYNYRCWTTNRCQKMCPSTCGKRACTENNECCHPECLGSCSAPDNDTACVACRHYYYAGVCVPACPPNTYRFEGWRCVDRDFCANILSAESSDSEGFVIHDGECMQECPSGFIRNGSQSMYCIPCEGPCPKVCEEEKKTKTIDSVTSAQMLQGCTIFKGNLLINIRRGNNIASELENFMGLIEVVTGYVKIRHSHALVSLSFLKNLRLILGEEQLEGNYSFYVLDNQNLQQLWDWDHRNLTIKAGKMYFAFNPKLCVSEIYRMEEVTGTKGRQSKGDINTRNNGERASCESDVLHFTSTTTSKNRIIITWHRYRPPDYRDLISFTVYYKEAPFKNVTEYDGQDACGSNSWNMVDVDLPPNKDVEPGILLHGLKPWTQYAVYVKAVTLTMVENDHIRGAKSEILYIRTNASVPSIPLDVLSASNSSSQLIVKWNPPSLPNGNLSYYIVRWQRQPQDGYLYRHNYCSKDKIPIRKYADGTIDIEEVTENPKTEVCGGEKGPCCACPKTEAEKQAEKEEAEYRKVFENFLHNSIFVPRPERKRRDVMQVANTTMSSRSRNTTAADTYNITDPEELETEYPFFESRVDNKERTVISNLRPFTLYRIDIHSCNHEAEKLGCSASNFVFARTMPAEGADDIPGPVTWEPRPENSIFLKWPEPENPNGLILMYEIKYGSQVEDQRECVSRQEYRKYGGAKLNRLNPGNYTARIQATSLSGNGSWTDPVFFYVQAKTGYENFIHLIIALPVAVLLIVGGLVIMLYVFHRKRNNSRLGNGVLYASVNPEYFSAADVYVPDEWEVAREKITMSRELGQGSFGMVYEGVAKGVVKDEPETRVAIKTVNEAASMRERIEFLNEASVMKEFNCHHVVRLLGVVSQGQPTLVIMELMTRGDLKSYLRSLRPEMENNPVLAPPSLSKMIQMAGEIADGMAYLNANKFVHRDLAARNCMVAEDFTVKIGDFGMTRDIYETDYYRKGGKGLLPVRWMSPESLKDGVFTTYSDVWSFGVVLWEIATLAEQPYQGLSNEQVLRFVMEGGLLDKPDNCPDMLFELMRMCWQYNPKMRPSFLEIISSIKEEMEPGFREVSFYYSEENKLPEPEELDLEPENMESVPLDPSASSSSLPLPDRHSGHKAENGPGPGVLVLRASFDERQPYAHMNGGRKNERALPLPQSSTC

This test concerns the target T1, IGF-1R (Homo sapiens, UniProt P08069).
T1 construct: expressed in transfected cells; host or cells: Hek293 (Hek293-IGF1R)
Kind of test: Cellular IGF-1R assay: capture ELISA (MSD) of receptor phosphorylation in Hek293 cells. It is filed as cell-based. The conditions noted are these: Hek293-IGF1R cells, 1 h pre-incubation, 10 min IGF stimulation, pIGF1R capture ELISA. Put shortly: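 IC50 from 4-parameter fit of IGF1R phosphorylation, normalised to IGF-stimulated and unstimulated controls, measured by MSD capture ELISA on lysates. Hek293-IGF1R cells in starvation medium got compound 1 h (top 10 μM, 3-fold steps, 0.1% DMSO) before a 10 min pulse of 1.0 ng/μL IGF.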
In general terms: ELISA stands for enzyme-linked immunosorbent assay.
As for `NC(=O)[C@@H]1[C@H](O)CCN1C[C@H]1C[C@@H](n2cc(-c3cccc(OCC4CCCO4)c3)c3c(N)ncnc32)C1` (stereo partly drawn) [Example 82, (2S,3R)-1-(cis-3-{4-amino-5-[3-(tetrahydro-furan-2-ylmethoxy)-phenyl]-pyrrolo[2,3-d]pyrimidin-7-yl}-cyclobutylmethyl)-3-hydroxy-pyrrolidine-2-carboxylic acid amide], half-maximal inhibition (IC50) was put at 205 nM.

As to `NC(=O)[C@@H]1CCCN1C[C@H]1C[C@H](n2cc(-c3cccc(OCC4CCCO4)c3)c3c(N)ncnc32)C1` (stereo partly drawn) [Example 86, (S)-1-(trans-3-(4-amino-5-[3-(tetrahydro-furan-2-ylmethoxy)-phenyl]-pyrrolo[2,3-d]pyrimidin-7-yl}-cyclobutylmethyl)-pyrrolidine-2-carboxylic acid amide], the IC50 turned out to be 47 nM. This IC50 is about 4.4-fold lower than that of the compound before.

As to `NC(=O)[C@H]1CCCN1C[C@H]1C[C@H](n2cc(-c3cccc(OCC4CCCO4)c3)c3c(N)ncnc32)C1` (stereo partly drawn) [Example 87, (R)-1-(trans-3-(4-amino-5-[3-(tetrahydro-furan-2-ylmethoxy)-phenyl]-pyrrolo[2,3-d]pyrimidin-7-yl}-cyclobutylmethyl)-pyrrolidine-2-carboxylic acid amide], the IC50 is 116 nM.

With `Nc1ncnc2c1c(-c1cccc(OCC3CCCCO3)c1)cn2[C@H]1C[C@@H](CN2CCC[C@@H]2C(=O)O)C1` (stereo partly drawn) [Example 90, 1-(cis-3-{4-amino-5-[3-(tetrahydro-pyran-2-ylmethoxy)-pheny]-pyrrolo[2,3-d]pyrimidin-7-yl}-cyclobutylmethyl)-pyrrolidine-2-carboxylic acid], the IC50 stood at 538 nM.

Turning to `CC1(C(N)=O)CCCN1CC1CC(n2cc(-c3cccc(OCC4CCCCO4)c3)c3c(N)ncnc32)C1` [Example 93, (2S)-1-(((1s,3R)-3-(4-amino-5-(3-((tetrahydro-2H-pyran-2-yl)methoxy)phenyl)-7H-pyrrolo[2,3-d]pyrimidin-7-yl)cyclobutyl)methyl)-2-methylpyrrolidine-2-carboxamide], the IC50 was determined as 26 nM.

For `NC(=O)C1CC(F)CN1CC1CC(n2cc(-c3cccc(OCC4CCCCO4)c3)c3c(N)ncnc32)C1` [Example 94, (2S,4R)-1-(((1 S,3R)-3-(4-amino-5-(3-((tetrahydro-2H-pyran-2-yl)methoxy)phenyl)-7H-pyrrolo[2,3-d]pyrimidin-7-yl)cyclobutyl)methyl)-4-fluoropyrrolidine-2-carboxamide], the IC50 worked out at 85 nM. Compared with the last compound, the IC50 is about 3.3-fold higher.

On to `NC(=O)C1C2CCC(C2)N1CC1CC(n2cc(-c3cccc(OCC4CCCCO4)c3)c3c(N)ncnc32)C1` [Example 95, (1R,3R,45)-2-(((1s, 3S)-3-(4-amino-5-(3-((tetrahydro-2H-pyran-2-yl)methoxy)phenyl)-7H-pyrrolo[2,3-d]pyrimidin-7-yl)cyclobutyl)methyl)-2-azabicyclo[2.2.1]heptane-3-carboxamide], for which the IC50 came out at 219 nM.

Compound `NC(=O)[C@@H]1COCCN1C[C@H]1C[C@@H](n2cc(-c3cccc(OCC4CCCCO4)c3)c3c(N)ncnc32)C1` (stereo partly drawn) [Example 96, (3S)-cis-4-((3-(4-amino-5-(3-((tetrahydro-2H-pyran-2-yl)methoxy)phenyl)-7H-pyrrolo[2,3-d]pyrimidin-7-yl}-cyclobutyl)methyl)morpholine-3-carboxamide] came in with an IC50 of 59 nM. This IC50 lies about 3.7-fold lower than the previous one.

As for `NC(=O)C1CC(F)CN1CC1CC(n2cc(-c3cccc(OCC4CCCCO4)c3)c3c(N)ncnc32)C1` [Example 97, (2S,4S)-1-(((1S,3R)-3-(4-amino-5-(3-((tetrahydro-2H-pyran-2-yl)methoxy)phenyl)-7H-pyrrolo[2,3-d]pyrimidin-7-yl)cyclobutyl)methyl)-4-fluoropyrrolidine-2-carboxamide], the IC50 stood at 105 nM.

`CC1(C)CN(CC2CC(n3cc(-c4cccc(OCC5CCCCO5)c4)c4c(N)ncnc43)C2)[C@H](C(N)=O)CO1` (stereo partly drawn) [Example 98, (3S)-4-((3-(4-amino-5-(3-((tetrahydro-2H-pyran-2-yl)methoxy)phenyl)-7H-pyrrolo[2,3-d]pyrimidin-7-yl)cyclobutyl)methyl)-6,6-dimethylmorpholine-3-carboxamide] had an IC50 of 28 nM.

`CNC(=O)[C@H]1CCCN1C[C@H]1C[C@@H](n2cc(-c3cccc(OCC4CCCCO4)c3)c3c(N)ncnc32)C1` (stereo partly drawn) [Example 100, (2R)-1-(((1R,3R)-3-(4-amino-5-(3-((tetrahydro-2H-pyran-2-yl)methoxy)phenyl)-7H-pyrrolo[2,3-d]pyrimidin-7-yl)cyclobutyl)methyl)-N-methylpyrrolidine-2-carboxamide] gave an IC50 of 444 nM.

For the compound `CC1(C(N)=O)CCCN1CC1CC(n2cc(-c3cccc(OCC45CCC(CC4)O5)c3)c3c(N)ncnc32)C1` [Example 101, (S)-1-(((1S,3R)-3-(5-(3-(7-oxabicyclo[2.2.1]heptan-1-ylmethoxy)phenyl)-4-amino-7H-pyrrolo[2,3-d]pyrimidin-7-yl)cyclobutyl)methyl)-2-methylpyrrolidine-2-carboxamide], half-maximal inhibition (IC50) required 8 nM.

In the case of `NC(=O)[C@@H]1[C@@H]2C[C@@H]2CN1CC1CC(n2cc(-c3cccc(OCC4CCCCO4)c3)c3c(N)ncnc32)C1` (stereo partly drawn) [Example 102, (1R,2S,5S)-3-(((1S,3R)-3-(4-amino-5-(3-((tetrahydro-2H-pyran-2-yl)methoxy)phenyl)-7H-pyrrolo[2,3-d]pyrimidin-7-yl)cyclobutyl)methyl)-3-azabicyclo[3.1.0]hexane-2-carboxamide], the IC50 is 43 nM.

In turn, `NC(=O)[C@@H]1[C@H]2CC[C@H](C2)N1CC1CC(n2cc(-c3cccc(OCC45CCC(CC4)O5)c3)c3c(N)ncnc32)C1` (stereo partly drawn) [Example 104, (1R,3S,4S)-2-(((1S,3R)-3-(5-(3-(7-oxabicyclo[2.2.1]heptan-1-ylmethoxy)phenyl)-4-amino-7H-pyrrolo[2,3-d]pyrimidin-7-yl)cyclobutyl)methyl)-2-azabicyclo[2.2.1]heptane-3-carboxamide] yielded an IC50 of 6 nM.

As for `CC1(C)CN(C[C@H]2C[C@@H](n3cc(-c4cccc(OCC5CCCCO5)c4)c4c(N)ncnc43)C2)CCS1(=O)=O` (stereo partly drawn) [Example 105, 7-[cis-3-(2,2-Dimethyl-1,1-dioxo-1λ6-thiomorpholin-4-ylmethyl)-cyclobutyl]-5-[3-(tetrahydro-pyran-2-ylmethoxy)-phenyl]-7H-pyrrolo[2,3-d]pyrimidin-4-ylamine], inhibition was half-maximal at 409 nM (IC50). Against the preceding compound, the IC50 is about 68-fold higher.

Consider `Nc1ncnc2c1c(-c1cccc(OCC34CCC(CC3)O4)c1)cn2[C@H]1C[C@@H](CN2CCSCC2=O)C1` [Example 106, 4-(((1S,3S)-3-(5-(3-(7-oxabicyclo[2.2.1]heptan-1-ylmethoxy)phenyl)-4-amino-7H-pyrrolo[2,3-d]pyrimidin-7-yl}-cyclobutyl)methyl)thiomorpholin-3-one], for which the IC50 was found to be 61 nM.

`CC1(OC(=O)NC[C@H]2C[C@@H](n3cc(-c4cccc(OCC56CCC(CC5)O6)c4)c4c(N)ncnc43)C2)CC1` [Example 107] came in with an IC50 of 21 nM.

The compound `Nc1ncnc2c1c(-c1cccc(OCC34CCC(CC3)O4)c1)cn2[C@H]1C[C@@H](CN2C(=O)c3ccccc3C2=O)C1` [Example 108, 2-(((1S,3S)-3-(5-(3-(7-oxabicyclo[2.2.1]heptan-1-ylmethoxy)phenyl)-4-amino-7H-pyrrolo[2,3-d]pyrimidin-7-yl)cyclobutyl)methyl)isoindoline-1,3-dione] came in with an IC50 of 327 nM.

With `CN1CCN([C@H]2CC[C@@H](n3cc(-c4cccc(OCC56CCC(CC5)O6)c4)c4c(N)ncnc43)CC2)CC1` [Example 109, 5-(3-(7-oxabicyclo[2.2.1]heptan-1-ylmethoxy)phenyl)-7-((1S,4S)-4-(4-methylpiperazin-1-yl)cyclohexyl)-7H-pyrrolo[2,3-d]pyrimidin-4-amine], the IC50 came out at 101 nM.

As for `Nc1ncnc2c1c(-c1cccc(OCC34CCC(CC3)O4)c1)cn2[C@H]1CC[C@@H](CO)CC1` [Example 110, ((1S,4S)-4-(5-(3-(7-oxabicyclo[2.2.1]heptan-1-ylmethoxy)phenyl)-4-amino-7H-pyrrolo[2,3-d]pyrimidin-7-yl)-cyclohexyl)methanol], the IC50 was 590 nM.

The compound `Nc1ncnc2c1c(-c1cccc(OCC34CCC(CC3)O4)c1)cn2C1CCC(CN2CCS(=O)(=O)CC2)CC1` (stereo not shown) [Example 111, 7-[4-(1,1-Dioxo-thiomorpholin-4-ylmethyl)-cyclohexyl]-5-[3-(7-oxa-bicyclo[2.2.1]hept-1-ylmethoxy)-phenyl]-7H-pyrrolo[2,3-d]pyrimidin-4-ylamine] gave an IC50 of 97 nM.

As for `Nc1ncnc2c1c(-c1cccc(OCC34CCC(CC3)O4)c1)cn2[C@H]1CC[C@@H](CN2CCSCC2)CC1` [Example 112, 5-(3-(7-oxabicyclo[2.2.1]heptan-1-ylmethoxy)phenyl)-7-((1S,4S)-4-(thiomorpholinomethyl)cyclohexyl)-7H-pyrrolo[2,3-d]pyrimidin-4-amine], half-maximal inhibition (IC50) required 36 nM.

In turn, `CN1CCN(C[C@H]2CC[C@@H](n3cc(-c4cccc(OCC56CCC(CC5)O6)c4)c4c(N)ncnc43)CC2)CC1` [Example 113, 5-(3-(7-oxabicyclo[2.2.1]heptan-1-ylmethoxy)phenyl)-7-((1S,4S)-4-((4-methylpiperazin-1-yl)methyl)cyclohexyl)-7H-pyrrolo[2,3-d]pyrimidin-4-amine] had an IC50 of 178 nM.

Turning to `CS(=O)(=O)CCN1CCC(n2cc(-c3cccc(OCC45CCC(CC4)O5)c3)c3c(N)ncnc32)CC1` [Example 114, 5-(3-(7-oxabicyclo[2.2.1]heptan-1-ylmethoxy)phenyl)-7-(1-(2-(methylsulfonyl)ethyl)piperidin-4-yl)-7H-pyrrolo[2,3-d]pyrimidin-4-amine], the IC50 was 299 nM.

Consider `Nc1ncnc2c1c(-c1cccc(OCC34CCC(CC3)O4)c1)cn2[C@H]1CC[C@@H](CN2CC[S+]([O-])CC2)CC1` [Example 115, 5-[3-(7-Oxa-bicyclo[2.2.1]hept-1-ylmethoxy)-phenyl]-7-cis-[4-(1-oxo-1λ4-thiomorpholin-4-ylmethyl)-cyclohexyl]-7H-pyrrolo[2,3-d]pyrimidin-4-ylamine], for which the IC50 was determined as 287 nM.

What is called IC50 is the concentration that gives 50% inhibition. Higher therefore signals weaker potency in that assay.

Source of the values: US20120165310A1, “ETHER DERIVATIVES OF BICYCLIC HETEROARYLS” (NOVARTIS AG, priority 2009, published 2012).
